Measured values published in ChEMBL document CHEMBL5725862, “PRMT5 inhibitors and uses thereof” (2018).

Assay: PRMT5 Biochemical Assay: The assays were all performed in a buffer consisting of 20 mM Bicine (pH=7.6), 1 mM TCEP, 0.005% BSG, and 0.002% Tween20, prepared on the day of use. Compounds in 100% DMSO (1 ul) were spotted into a polypropylene 384-well V-bottom plates (Greiner) using a Platemate Plus outfitted with a 384-channel head (Thermo Scientific). DMSO (1 ul) was added to Columns 11, 12, 23, 24, rows A-H for the maximum signal control and 1 ul of SAH, a known product and inhibitor of PRMT5/MEP50, was added to columns 11, 12, 23, 24, rows I-P for the minimum signal control. A cocktail (40 ul) containing the PRMT5/MEP50 enzyme and the peptide was added by Multidrop Combi (Thermo-Fisher). The compounds were allowed to incubate with PRMT5/MEP50 for 30 min at 25 degrees Celsius, then a cocktail (10 ul) containing 3H-SAM was added to initiate the reaction (final volume=51 ul). The final concentrations of the components were as follows: PRMT5/MEP50 was 4 nM, 3H-SAM was 75 nM, peptide was 40 nM, SAH in the minimum signal control wells was 100 uM, and the DMSO concentration was 1%. The assays were stopped by the addition of non-radioactive SAM (10 ul) to a final concentration of 600 uM, which dilutes the 3H-SAM to a level where its incorporation into the peptide substrate is no longer detectable. […]

Compound: C[C@H](Oc1cccc2cccnc12)C(=O)NC[C@@H](O)CN1Cc2ccccc2C1
- IC50: in the range around 550 nM
